According to patent publication US9157069B2, “Method of producing pancreatic hormone-producing cells” (Takeda Pharmaceutical Company Limited, priority 2010, dated 2015):
“Also recorded” adds a separate entry of the source.

Experiments:
[1] = system: human iPS cells; test: Endoderm induction of human iPS cells, SOX17 gene expression by quantitative RT-PCR; format: cell-based; settings: GSK3 inhibitor (CHIR99021 3 μM or BIO 0.5 μM) with activin A 100 ng/ml, after 2 days in CHIR99021 3 μM; from day 4 of culture
Description: To the human iPS cells sedimented in the centrifuge tube, 0.25% trypsin-1 mM EDTA solution (GIBCO) was added, and allowed to dissociate until they form singulated cells. Then, human iPS cells dispersed in a medium were seeded at a density of 15×10^4 cells per one 100 mm dish coated with BD Matrigel (Nippon Becton Dickinson Company, Ltd.), and cultured at 37° C., 5% CO2 for 1 day. The 100 mm dish used was one coated with BD Matrigel diluted 40-fold with serum-free DMEM/F12 medium (Invitrogen), at room temperature for 3 hr or longer. As a medium for dispersion and seeding was a medium for primate ES cell (ReproCELL Inc.) added with 10 μM Y-27632 (Wako Pure Chemical Industries, Ltd.). […]
To examine variation in the expression of endoderm differentiation markers when human iPS cells were cultured, the cells after differentiation induction were recovered over time, and total RNA fraction was purified using RNeasy96 (Qiagen). cDNA was synthesized using PrimeScriptRT reagent kit (Takara Bio Inc.), quantitative RT-PCR was performed, and the gene expression level of a primitive streak marker Brachyury, and an endoderm marker SOX17 was measured. […]
The level of the gene expression of SOX17 when human iPS cells were cultured was measured over time. […]

[2] = system: human iPS cells; test: Differentiation of human iPS cells into pancreatic hormone-producing cells on BD Matrigel or fibronectin substrate, time-course expression of differentiation markers; format: cell-based; settings: substrate for endoderm induction, 100 mm dish coating diluted 40-fold
Description: First, human iPS cells maintained in the state of a cell mass were dissociated until they formed singulated cells in the same manner as in Example 1. Then, human iPS cells dispersed in a medium were seeded at a density of 60×10^4 cells per one 100 mm dish coated with fibronectin (Invitrogen), and cultured at 37° C., 5% CO2 for 1 day. The 100 mm dish used was one coated with fibronectin diluted 40-fold with serum-free DMEM/F12 medium (Invitrogen), at room temperature for 3 hr or longer. (indicated as “fibronectin” in FIG. 7) Human iPS cells dispersed in a medium were seeded at a density of 15×10^4 cells per one 100 mm dish coated with BD Matrigel (Nippon Becton Dickinson Company, Ltd.), and cultured at 37° C., 5% CO2 for 1 day. The 100 mm dish used was one coated with BD Matrigel diluted 40-fold with serum-free DMEM/F12 medium (Invitrogen), at room temperature for 3 hr or longer. (indicated as “Matrigel” in FIG. 7) As a medium for dispersion and seeding was a medium for primate ES cell (ReproCELL Inc.) added with 10 μM Y-27632 (Wako Pure Chemical Industries, Ltd.). One day after seeding, the medium was exchanged with DMEM/F12 medium containing a GSK3β inhibitor CHIR99021 (3 μM) and 2% B-27 supplement (GIBCO) and cultured for 2 days. Then the medium was exchanged with DMEM/F12 medium containing activin A (50 ng/ml) and CHIR99021 (1 μM) and cultured for 2 days.

| Compound | expression level of SOX17 (relative to GAPDH) [1] | time-course variation in the expression of differentiation markers (SOX17, PDX1, NGN3, insulin), compared between substrates [2] |
| --- | --- | --- |
| O=C1Nc2cc(Br)ccc2/C1=C1/Nc2ccccc2/C1=N\O [BIO, (2′Z,3′E)-6-bromoindirubin-3′-oxime] | remarkably increased; also recorded: increased over time | – |
| Cc1c[nH]c(-c2cnc(NCCNc3ccc(C#N)cn3)nc2-c2ccc(Cl)cc2Cl)n1 [CHIR99021, 6-[[2-[[4-(2,4-dichlorophenyl)-5-(4-methyl-1H-imidazol-2-yl)-2-pyrimidinyl]amino]ethyl]amino]nicotinonitrile] | remarkably increased; also recorded: increased over time | – |
| fibronectin | – | almost the same |
